Molecular target: T1, tyrosinase activity in mouse melanoma B16-F10 cells (Mus musculus, UniProt P11344)
T1 construct: Mouse melanoma B16-F10 cells were used; endogenous in cells; host or cells: mouse melanoma B16-F10 cells
T1 sequence (P11344 19-533): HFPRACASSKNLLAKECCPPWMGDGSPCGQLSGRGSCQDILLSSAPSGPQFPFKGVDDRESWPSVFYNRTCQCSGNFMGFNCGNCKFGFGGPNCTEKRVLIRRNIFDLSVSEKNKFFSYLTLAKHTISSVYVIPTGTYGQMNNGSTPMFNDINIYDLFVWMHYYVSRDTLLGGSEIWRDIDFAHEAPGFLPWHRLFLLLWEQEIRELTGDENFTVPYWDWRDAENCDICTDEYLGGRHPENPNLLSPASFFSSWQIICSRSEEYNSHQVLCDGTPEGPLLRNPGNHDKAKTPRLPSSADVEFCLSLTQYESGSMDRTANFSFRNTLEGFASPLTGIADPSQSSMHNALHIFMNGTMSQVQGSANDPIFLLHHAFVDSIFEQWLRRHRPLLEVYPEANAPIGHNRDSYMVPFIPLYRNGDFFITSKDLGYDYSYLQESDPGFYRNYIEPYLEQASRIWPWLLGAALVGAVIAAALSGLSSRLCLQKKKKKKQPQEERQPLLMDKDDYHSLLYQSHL
Test: Inhibition of tyrosinase (melanogenesis induction firstly, then administration), L-DOPA conversion
Format: cell-based
Conditions: 250 ppm arbutin, 6 ppm resveratrol, 8 ppm curcumin, 8 ppm compositions; 48 hours after α-MSH; absorbance 405 nm within 60 minutes

`COc1cc(/C=C/C(=O)CC(=O)/C=C/c2ccc(O)c(OC)c2)ccc1O` [curcumin] was tested, and the “activity of tyrosinase compared with control group (in words)” value was “reduced the activity of tyrosinase”.
`OC[C@H]1O[C@@H](Oc2ccc(O)cc2)[C@H](O)[C@@H](O)[C@@H]1O` [arbutin] was tested, and the “activity of tyrosinase compared with control group (in words)” value was “reduced the activity of tyrosinase”.

Reference: patent US20160374911A1, “PLANT EXTRACT COMPOSITION FOR SKIN WHITENING AND REDUCING MELANIN AS WELL AS APPLICATION THEREOF” (CALIWAY BIOPHARMACEUTICALS CO., LTD., priority 2015, published 2016)
